Legend:
complementary RNA = test: Determining the melting temperatures (complementary RNA); format: binding; conditions: 140 mM KCl, 10 mM sodium dihydrogen phosphate, 0.1 mM EDTA (pH 7.4); oligomer 0.5 to 1 OD260 per ml
Procedure: (§1) The melting temperatures were determined using an HP 8452A diode-array spectrophotometer, an HP 89090A Peltier element and HP Temperature Control Software Rev. B5.1 (from Hewlett Packard). Measurements were taken in 0.5° C./min steps in 140 mM KCl, 10 mM sodium dihydrogen phosphate, 0.1 mM EDTA (pH 7.4) as the buffer. The oligomer concentration was from 0.5 to 1 OD260 per ml.

complementary DNA = test: Determining the melting temperatures (complementary DNA); format: binding; conditions: for Tm (DNA): 140 mM KCl, 10 mM sodium dihydrogen phosphate, 0.1 mM EDTA (pH 7.4), oligomer 0.5 to 1 OD260 per ml; for degree of binding towards complementary DNA and RNA compared with the uncharged PNA (reference substance): melting temperature experiment
Procedure: as §1

COS cells = test: Determining cell uptake after fluorescence labeling; format: cell-based; conditions: PNA solution 10 μM, 37° C., examined after 2, 4 and 16 hours
Procedure: COS cells were allowed to grow to confluence in Dulbecco's MEM, which was supplemented with 10% FCS, in 5 cm Petri dishes. The cells were washed twice with serum-free DMEM. An area of approx. 1 cm^2 was scratched out in the middle of the Petri dish using a sterile needle. The PNA solution (10 μM) under investigation was applied in this area. The dish was incubated at 37° C. under a CO2 atmosphere. After 2, 4 and 16 hours, the cells were examined by fluorescence microscopy. For this, the cells were washed four times with serum-free DMEM, covered with a cover slip, and evaluated under the fluorescence microscope or by phase contrast. PNA-5 and PNA-6 were examined by fluorescence microscopy.

[1] = tested on: REH cells (human pre-B leukemia cells, DSM ACC 22); test: Inhibiting cell proliferation; format: cell-based; conditions: 10 μM, after >4 days of incubation
Procedure: The sequence of PNA-6 is directed against the translation start of the Ha-ras mRNA. REH cells (human pre-B leukemia cells, DSM ACC 22) or A549 tumor cells were cultured, at 37° C. and under 5% CO2, in OptiMEM (Gibco BRL) containing 10% fetal calf serum (FCS, GIBCO-BRL). The cell density for the assay was approx. 1×10^6/ml. The PNA-6 (10 μM) was incubated with the cells in 24-well plates. After incubating at 37° C. and under 5% CO2 for 96 hours, the cell density was determined. Mean values for the cell density were determined from 3 individual wells at a given PNA concentration. […] After >4 days of incubation, the inhibition brought about by PNA-6 was greater than that brought about by a corresponding phosphorothioate oligonucleotide.

Row | degree of binding towards complementary DNA and RNA compared with the uncharged PNA (reference substance) (complementary DNA) | Substance | Tm (RNA) (complementary RNA) | Tm (DNA) (complementary DNA) | cell uptake by fluorescence microscopy, compared with the PNA with no hexadecyl radical (COS cells) | inhibition of proliferation compared with a corresponding phosphorothioate oligonucleotide [1]
1 | equally good or better degree of binding | p-t(oeg) at tcc gtc at-aminohexyl-p-fluorescein [PNA-5] | 56.9 °C | 41.8 °C | – | –
2 | equally good or better degree of binding | C16-p-t(oeg) at tcc gtc at-aminohexyl-p-fluorescein [PNA-6] | 56.9 °C | 44.1 °C | taken up more efficiently | greater
3 | – | Ac-HN-tat tcc gtc at-hex [Reference, reference compound] | 56.6 °C | 41.9 °C | – | –
